The values below come from article PMC10011554, “BET inhibitor trotabresib in heavily pretreated patients with solid tumors and diffuse large B-cell lymphomas” (Nature Communications, 2023).

Series [1] can be described thus: Clinical plasma and CSF pharmacokinetics, part A. In kind it is in vivo. The note with it: human. On the procedure: Protocol CC-90010-ST-001 Celgene Corporation
Following oral administration of CC-90010, geometric mean peak exposure to CC-90010, based on Cmax, increased with dose on Day 1 (single dose) and after last dose (repeated dosing), in a manner approximately proportional with dose. Across all dose levels and both sampling occasions, Cmax was observed a few hours after dosing, with median tmax ranging from 1 to 2 hours postdose. The terminal elimination half-life, where estimated, was generally similar across the dose schedules, ranging from approximately 40 to 70 hours, after repeated dosing of […]
across the dose levels, after repeated dosing of CC-90010. There was evidence of accumulation after repeated dosing of CC-90010 for all dose schedules and dose levels, with accumulation […]
Between-subject variability across the dose levels ranged from 22.0% to 91.7% on Day 1 based […]
Cerebrospinal fluid samples were collected for one subject, who had quantifiable cerebrospinal fluid concentrations of CC-90010, with an average time matched CSF/plasma ratio of 6.6%.
1.4. Safety Monitoring Plan […]
(1 picture or pasted object on this page, not shown here)
The provisional CC-90010 dose levels (total doses within on cycle) are: 180 mg in Schedule 1, […]
220 mg in Schedule 4. It is however possible for some doses to be skipped or additional dose levels to be added during the course of the study, based on the emerging safety information.
After each cohort the posterior distributions for the probabilities of a DLT rates at different dose levels are obtained. The results of this analysis are summarized in terms of the estimated probabilities that the true rate of DLT at each dose-level will have of lying in each of the […]
• [0.16, 0.33) targeted toxicity
• [0.33, 1.00] excessive toxicity.
Following the principle of escalation with EWOC, after each cohort of subjects the recommended dose is the one with the highest posterior probability of the DLT rate falling in the target interval [16%, 33%) among the doses fulfilling EWOC, ie, it is unlikely (<25% posterior probability) that the DLT rate at the dose falls in the excessive toxicity interval.
Note that the dose that maximizes the posterior probability of targeted toxicity is the best estimate of the MTD, but it may not be an admissible dose according to the overdose criterion if the amount of data is insufficient. […]
Plasma PK parameters such as AUC0-24, C max, Tmax, t1/2, CL/F, and Vz/F of CC-90010 will be calculated by the noncompartmental analysis method from the plasma concentration-time profiles of CC-90010. Additional PK parameters including CSF to plasma concentration ratio of CC-90010, may be calculated, if data permits. […]

On the set-up of series [2]: method as in PMID 32240793. The note with it: cited from earlier work.
Series [3] has as its system MYC gene expression in Raji Burkitt's lymphoma cells. More on the design: method as in Investigator's Brochure. The settings on record: ref Investigator's Brochure, read-out: mean IC50, inhibition of MYC gene expression; cited from earlier work.
The test system of the next series is U-2932 (DOX-R). More on the design: method as in Report CC-90010-Pharm-1018. The settings on record: Table 2, ref Report CC-90010-Pharm-1018, read-out: absolute IC50, proliferation; cited from earlier work.
In series [4] the test system is BR0869f ER-PR-Her2+ PDX-derived breast cancer model. The arrangement: method as in Investigator's Brochure. The note with it: 7 or 14 days, ref Investigator's Brochure, read-out: mean IC50, colony formation; cited from earlier work.
The test system of series [5] is COH71 TNBC PDX-derived model. More on the design: method as in Investigator's Brochure. The settings on record: COH71, ref Investigator's Brochure; read-out: IC50, colony formation; cited from earlier work.
In the next series the test system is COH70 TNBC PDX. The arrangement: method as in Unpublished data from Celgene Corporation. The note with it: Day 38, ref Unpublished data from Celgene Corporation, cited from earlier work.
On the set-up of series [6]: method as in Investigator's Brochure. The note with it: ref Investigator's Brochure, cited from earlier work.
In the next series the test system is CYP2C8. More on the design: method as in Investigator's Brochure. The note with it: CYP2C8, ref Investigator's Brochure; read-out: IC50, direct inhibition; cited from earlier work.
A further series has as its system OAT3. More on the design: method as in Investigator's Brochure. The settings on record: OAT3, 30 µM, ref Investigator's Brochure; cited from earlier work.
In another series the test system is OATP1B3. The arrangement: method as in Investigator's Brochure. The note with it: OATP1B3, 30 µM, ref Investigator's Brochure; cited from earlier work.
The next series deals with BCRP or MRP2. More on the design: method as in Investigator's Brochure. The note with it: BCRP or MRP2, ref Investigator's Brochure; cited from earlier work.
In series [7] the test system is BCRP, MRP2, OAT1, OAT3, OATP1B1, OATP1B3 and OCT2. More on the design: method as in Investigator's Brochure. The note with it: MRP2, OAT1, OAT3, OATP1B1, OATP1B3 and OCT2, ref Investigator's Brochure; cited from earlier work.

Like-named read-outs stand apart in the source and are kept apart here. A value given as a limit tells only on which side of the number the result lay.

With `Cn1cc(-c2cc(S(C)(=O)=O)ccc2OCC2CC2)c2ccccc2c1=O` [trotabresib], in [1] (CSF, oral, one subject, read-out: average time matched CSF/plasma ratio), the Kp came to 0.066. In [1] (in vivo, part A, across all dose levels, Day 1 and last dose, read-out: median tmax), the Tmax lay in the range of 1 to 2 h. In series [1] (in vivo, part A, across dose levels, after repeated dosing, read-out: Vss/F), the Vd/F fell in the range of 134 to 553 L. In addition, the half-life in series [1] (in vivo, part A, across dose schedules, after repeated dosing, read-out: terminal elimination half-life) lay in the range of 40 to 70 h. Besides, the “alternative RP2D” value in series [2] (3 days on/11 days off) is given as 30 mg/day. For the same compound, the “recommended phase II dose (RP2D)” value in series [2] (4 days on/24 days off) was 45 mg/day. Moreover, the IC50 was 60 nM in [3]; 348 nM in the series with U-2932 (DOX-R); 120 ± 10 nM in [4]; 180 ± 20 nM in series [5]; at least 13900 nM in the series with CYP2C8. The “mean percent TGI” value in the series with COH70 TNBC PDX (COH70, 12.5 mg/kg/dose PO QD 3 days on/4 days off) was 64%; with COH70 TNBC PDX (COH70, 16 mg/kg/dose PO QD 3 days on/4 days off), 68%; in the series on COH70 TNBC PDX (COH70, 20 mg/kg/dose PO QD 3 days on/4 days off) it was 72%. In addition, the “accumulation after repeat dosing” value in [6] (rats, toxicokinetics) is listed as “no accumulation in rats”. Also, the “clearance in male vs female rats” value in [6] was “approximately 2 fold”. Also, the figures for the “inhibition of mediated transport” value with OAT3 and with OATP1B3 were 53.6% and 58.3%, respectively. The transporter inhibition entry in the series on BCRP or MRP2 is given as “not an inhibitor”. In addition, the transporter substrate status entry in series [7] is “not a substrate”.
